The results in this text go back to PMC11784839, “Monoaminergic neurotransmitters are bimodal effectors of tau aggregation” (Science Advances, 2025).

The assay concerns the target tau (Homo sapiens, UniProt P10636). Kind of assay: MCE Phenols Library screening, tau biosensor cell seeding assay (AvZ). Particulars: for Z repl 1 / Z Repl 2: Z score; for Z repl 1 / raw data 1: replicate 1; for Z Repl 2 / raw data 2: replicate 2; for AvZ (average z score of seeding, SDs from the mean level of seeding): 10 μM phenol in cell cultures, AD brain homogenate preincubated 16 hours, two biological replicates, positive = catalyzes seeding, negative = inhibits. It is filed as cell-based.

The mark [1] stands for this setting: average Z score of the two replicates, MCE Phenols Library screen.
The mark [2] stands for this setting: average puncta of the two replicates.
The mark [3] stands for this setting: average Z score of the two replicates, tau seeding.
The mark [4] stands for this setting: average Z score of two replicates, Phenols Library screen.

tau, sequence (P10636 623-695 limits assumed): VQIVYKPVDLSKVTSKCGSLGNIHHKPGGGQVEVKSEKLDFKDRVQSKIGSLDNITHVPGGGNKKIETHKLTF

Take `O=c1c(O)c(-c2cc(O)c(O)c(O)c2)oc2cc(O)ccc12` [Robinetin]: the “Z repl 1” value was -0.499 and the “Z Repl 2” value is recorded as -0.831. Besides, the “av Z” value under setting [1] is recorded as -0.665. In addition, the av puncta under setting [2] is reported as 12124.5. Further, under “puncta”, the “raw data 1” value is 20360.8 and the “raw data 2” value stood at 3888.25.

As to `CC1OC(OCC2OC(Oc3c(-c4ccc(O)cc4)oc4cc(OC5OC(C)C(O)C(O)C5O)cc(O)c4c3=O)C(O)C(O)C2O)C(O)C(O)C1O` (stereo not shown) [Robinin], the “Z repl 1” value came to 0.02 and the “Z Repl 2” value is -0.843. The “av Z” value under setting [1] was -0.411. The same compound came in with an av puncta under setting [2] of 15180.1. Under “raw puncta”, the “raw data 1” value amounted to 26593.3 and the “raw data 2” value came out at 3766.89.

Consider `COc1c2ccoc2nc2c(O)cccc12` [Robustine], for which the “Z repl 1” value is recorded as 0.29 and the “Z Repl 2” value came to 0.728. The “av Z” value under setting [3] is recorded as 0.509. For the same compound, the av puncta (average of raw data 1 and 2) was determined as 25188.7. In addition, under “puncta”, the “raw data 1” value is 29833.7 and the “raw data 2” value is on record as 20543.7.

Consider `CC(=O)c1c(O)c(C)c(O)c(Cc2c(O)c3c(c(C(=O)/C=C/c4ccccc4)c2O)OC(C)(C)C=C3)c1O` [Rottlerin], for which the “Z repl 1” value stood at 0.296 and the “Z Repl 2” value was found to be 1.083. Moreover, the “av Z” value under setting [3] worked out at 0.69. Further, the av puncta (average of raw data 1 and 2) is 27122.4. For the setting “puncta”, the “raw data 1” value came out at 29908.4 and the “raw data 2” value turned out to be 24336.4.

With `COc1ccc(-c2oc3c(CC=C(C)C)c(O)cc(O)c3c(=O)c2O[C@@H]2O[C@@H](C)[C@H](O)[C@@H](O)[C@H]2O[C@@H]2O[C@H](CO)[C@@H](O)[C@H](O)[C@H]2O)cc1` [Sagittatoside A], the “Z repl 1” value is on record as -0.371 and the “Z Repl 2” value is reported as -0.506. For the same compound, the “av Z” value under setting [1] was -0.438. The same compound returned an av puncta under setting [2] of 14630.2. Under “raw puncta”, the “raw data 1” value was 21894.6 and the “raw data 2” value came to 7365.88.

`COc1cc(O)c2c(c1)O[C@H](c1ccc(O)cc1)CC2=O` [Sakuranetin]: the “Z repl 1” value is 0.003 and the “Z Repl 2” value is listed as -0.01. In addition, the “av Z” value under setting [4] is -0.004. For the setting “average of raw data 1 and 2”, this compound came in with an av puncta of 19521.3. Moreover, for the setting “puncta”, the “raw data 1” value came to 26379.5 and the “raw data 2” value came out at 12663.1.

For `OCc1ccccc1O` [Salicyl alcohol], the “AvZ (average z score of seeding, SDs from the mean level of seeding)” value (“AvZ” for short) is -0.44; the “Z repl 1” value is reported as -0.325; the “Z Repl 2” value is recorded as -0.555. The same compound showed an av puncta under setting [2] of 14639.5. Under “raw puncta”, the “raw data 1” value turned out to be 22445.8 and the “raw data 2” value amounted to 6833.28.

For the compound `O=C(O)c1ccccc1O` [Salicylic acid, reference compound], the “AvZ” value was -0.516; the “Z repl 1” value is on record as -1.015; the “Z Repl 2” value is -0.017. Under setting [2], this compound displayed an av puncta of 13372.8. Where the note is “puncta”, the “raw data 1” value is listed as 14164.1 and the “raw data 2” value is reported as 12581.6.

As to `O=C(/C=C/c1ccc(O)c(O)c1/C=C/c1ccc(O)c(O)c1)O[C@H](Cc1ccc(O)c(O)c1)C(=O)O` [Salvianolic acid A], the “Z repl 1” value is reported as -2.14 and the “Z Repl 2” value is reported as -1.185. The “av Z” value under setting [1] is listed as -1.663. The compound further gave an av puncta (average of raw data 1 and 2) of 383.467. Where the note is “puncta”, the “raw data 1” value came to 661.17 and the “raw data 2” value came out at 105.765.

As for `O=C(/C=C/c1ccc(O)c2oc(-c3ccc(O)c(O)c3)cc12)O[C@H](Cc1ccc(O)c(O)c1)C(=O)O` [Salvianolic acid C], the “Z repl 1” value is on record as -1.645 and the “Z Repl 2” value was -1.179. Further, under setting [1], the “av Z” value is recorded as -1.412. This compound also came in with an av puncta (average of raw data 1 and 2) of 3386.53. Besides, where the note is “puncta”, the “raw data 1” value is listed as 6602.17 and the “raw data 2” value stood at 170.893.

Regarding `COc1cc2c(c(O)c1OC)-c1c(cc(OC)c(OC)c1OC)C[C@@H](C)[C@@H](C)C2` [Schisanhenol], the “Z repl 1” value is -0.397 and the “Z Repl 2” value is -0.108. Moreover, under setting [1], the “av Z” value was -0.253. Further, under setting [2], the av puncta is 16597.3. Under “raw puncta”, the “raw data 1” value is 21578.6 and the “raw data 2” value is 11616.1.

Consider `O=c1cc(-c2ccc(O)cc2)oc2cc(O)c(O)c(O)c12` [Scutellarein], for which the “Z repl 1” value is on record as -0.619 and the “Z Repl 2” value is -1.142. Moreover, under setting [1], the “av Z” value is given as -0.88. This compound yielded an av puncta (average of raw data 1 and 2) of 9747.69. Besides, under “puncta”, the “raw data 1” value came to 18922.2 and the “raw data 2” value came out at 573.179.

For the compound `O=C(O)[C@H]1O[C@@H](Oc2cc3oc(-c4ccc(O)cc4)cc(=O)c3c(O)c2O)[C@H](O)[C@@H](O)[C@@H]1O` [Scutellarin], the “Z repl 1” value is on record as -1.927 and the “Z Repl 2” value is reported as -0.903. Moreover, the “av Z” value under setting [1] is recorded as -1.415. The av puncta (average of raw data 1 and 2) stood at 3169.77. Further, under “puncta”, the “raw data 1” value is 3217.73 and the “raw data 2” value worked out at 3121.8.

For the compound `COc1cc(C[C@@H](CO)[C@H](CO)Cc2ccc(O)c(OC)c2)ccc1O` [Secoisolariciresinol], the “Z repl 1” value is 1.372 and the “Z Repl 2” value was determined as 0.426. The “av Z” value (average Z score of the two replicates, tau biosensor seeding, MCE Phenols Library screen) worked out at 0.899. Under “average of raw data 1 and 2”, this compound displayed an av puncta of 30068. Under “puncta”, the “raw data 1” value was 42819.5 and the “raw data 2” value was found to be 17316.5.

As to `O=C(O)c1cc(O)c2c(c1)[C@H]([C@H]1c3cccc(O)c3C(=O)c3c(O)cc(C(=O)O)cc31)c1cccc(O)c1C2=O` [Sennidin B], the “Z repl 1” value amounted to 0.553 and the “Z Repl 2” value was -0.073. The “av Z” value under setting [3] was determined as 0.24. Further, the av puncta (average of raw data 1 and 2) worked out at 22482.9. For the setting “puncta”, the “raw data 1” value was determined as 32984.9 and the “raw data 2” value was 11981.

Regarding `O=C(O)c1cc(O)c2c(c1)[C@H]([C@H]1c3cc(C(=O)O)cc(O)c3C(=O)c3c(O[C@@H]4O[C@H](CO)[C@@H](O)[C@H](O)[C@H]4O)cccc31)c1cccc(O[C@@H]3O[C@H](CO)[C@@H](O)[C@H](O)[C@H]3O)c1C2=O` [Sennoside A], the “Z repl 1” value is -1.043 and the “Z Repl 2” value is -0.801. Also, the “av Z” value under setting [1] is reported as -0.922. The av puncta (average of raw data 1 and 2) worked out at 9021.29. Moreover, where the note is “puncta”, the “raw data 1” value came out at 13826.4 and the “raw data 2” value is recorded as 4216.17.

Consider `Oc1ccc2c(c1)OCO2` [Sesamol], for which the “Z repl 1” value is -0.018 and the “Z Repl 2” value is -1.03. Further, under setting [1], the “av Z” value is -0.524. Further, the av puncta under setting [2] was 13948.1. Where the note is “puncta”, the “raw data 1” value is 26133.2 and the “raw data 2” value amounted to 1763.04.

As to `COc1cc(/C=C/C(=O)O[C@H]2[C@H](O)[C@@H](CO)O[C@@]2(CO)O[C@H]2O[C@H](CO)[C@@H](O)[C@H](O)[C@H]2O)ccc1O` [Sibiricose A5], the “Z repl 1” value is -0.765 and the “Z Repl 2” value is on record as -0.196. Besides, under setting [1], the “av Z” value is on record as -0.481. In addition, the av puncta under setting [2] came out at 13916.2. Moreover, under “puncta”, the “raw data 1” value amounted to 17163.5 and the “raw data 2” value was 10668.8.

Regarding `COc1cc([C@@H]2Oc3c(O)cc([C@H]4Oc5cc(O)cc(O)c5C(=O)[C@@H]4O)cc3[C@H]2CO)ccc1O` [Silychristin], the “Z repl 1” value stood at 0.429 and the “Z Repl 2” value was -0.406. For the same compound, under setting [4], the “av Z” value amounted to 0.012. This compound also registered an av puncta (average of raw data 1 and 2) of 19966.5. Further, for the setting “puncta”, the “raw data 1” value came out at 31503 and the “raw data 2” value was determined as 8429.95.

As for `COc1cc(/C=C/C=O)cc(OC)c1O` [Sinapaldehyde], the “AvZ” value came out at 0.096; the “Z repl 1” value is reported as 0.021; the “Z Repl 2” value is 0.172. Where the note is “average of raw data 1 and 2”, the av puncta is 20601.9. For the same compound, where the note is “puncta”, the “raw data 1” value was 26603.6 and the “raw data 2” value is recorded as 14600.1.

Regarding `COc1cc(/C=C/C(=O)OCC[N+](C)(C)C)cc(OC)c1O.N#C[S-]` [Sinapine (thiocyanate)], the “AvZ” value came out at 0.005; the “Z repl 1” value is listed as 0.104; the “Z Repl 2” value was -0.095. Besides, the av puncta (average of raw data 1 and 2) was found to be 19676.8. Besides, where the note is “puncta”, the “raw data 1” value was found to be 27602.3 and the “raw data 2” value came out at 11751.4.

For `COc1cc(/C=C/C(=O)OCC[N+](C)(C)C)cc(OC)c1O` [Sinapine], the “AvZ” value is recorded as -0.633; the “Z repl 1” value was -0.962; the “Z Repl 2” value is -0.305. In addition, under “listed as sinapine”, the “AvZ” value is −0.633. The av puncta under setting [2] was 12156.4. In addition, for the setting “puncta”, the “raw data 1” value is given as 14803.5 and the “raw data 2” value stood at 9509.32.

For the compound `COC1=C[C@@H]2[C@@H]3Cc4ccc(OC)c(O)c4[C@]2(CCN3C)CC1=O.Cl` [Sinomenine hydrochloride], the “Z repl 1” value is -0.595 and the “Z Repl 2” value is reported as 0.066. The “av Z” value under setting [1] was -0.264. For the same compound, the av puncta under setting [2] is reported as 16340.1. Further, where the note is “raw puncta”, the “raw data 1” value was 19209.2 and the “raw data 2” value is given as 13470.9.

In the case of `C=C(C)[C@H](CC=C(C)C)Cc1c(O)cc(O)c2c1O[C@H](c1ccc(O)cc1O)CC2=O` [Sophoraflavanone G], the “Z repl 1” value is recorded as -0.704 and the “Z Repl 2” value was -0.412. For the same compound, under setting [1], the “av Z” value is -0.558. The compound also came in with an av puncta under setting [2] of 13130.1. Besides, for the setting “puncta”, the “raw data 1” value was 17897.8 and the “raw data 2” value is on record as 8362.49.
